According to patent US7915448B2, “Substituted sulfonylaminoarylmethyl cyclopropanecarboxamide as VR1 receptor antagonists” (Pfizer Inc., priority 2005, dated 2011):
Where a name gives a salt, the structure may show the parent alone.

Tests used:
[1] = target: T1, human VR1 receptors (Homo sapiens, UniProt Q8NER1); test: Human VR1 antagonist assay (Ca2+ imaging); type: cell-based; conditions: cells expressing human VR1, fura-2 Ca2+ imaging, FDSS 6000; capsaicin (300 nM) or acid (pH5.8) stimulation, table does not say which
T1 construct: host or cells: cells highly expressing human VR1; cell type not specified
T1 sequence (Q8NER1 whole entry): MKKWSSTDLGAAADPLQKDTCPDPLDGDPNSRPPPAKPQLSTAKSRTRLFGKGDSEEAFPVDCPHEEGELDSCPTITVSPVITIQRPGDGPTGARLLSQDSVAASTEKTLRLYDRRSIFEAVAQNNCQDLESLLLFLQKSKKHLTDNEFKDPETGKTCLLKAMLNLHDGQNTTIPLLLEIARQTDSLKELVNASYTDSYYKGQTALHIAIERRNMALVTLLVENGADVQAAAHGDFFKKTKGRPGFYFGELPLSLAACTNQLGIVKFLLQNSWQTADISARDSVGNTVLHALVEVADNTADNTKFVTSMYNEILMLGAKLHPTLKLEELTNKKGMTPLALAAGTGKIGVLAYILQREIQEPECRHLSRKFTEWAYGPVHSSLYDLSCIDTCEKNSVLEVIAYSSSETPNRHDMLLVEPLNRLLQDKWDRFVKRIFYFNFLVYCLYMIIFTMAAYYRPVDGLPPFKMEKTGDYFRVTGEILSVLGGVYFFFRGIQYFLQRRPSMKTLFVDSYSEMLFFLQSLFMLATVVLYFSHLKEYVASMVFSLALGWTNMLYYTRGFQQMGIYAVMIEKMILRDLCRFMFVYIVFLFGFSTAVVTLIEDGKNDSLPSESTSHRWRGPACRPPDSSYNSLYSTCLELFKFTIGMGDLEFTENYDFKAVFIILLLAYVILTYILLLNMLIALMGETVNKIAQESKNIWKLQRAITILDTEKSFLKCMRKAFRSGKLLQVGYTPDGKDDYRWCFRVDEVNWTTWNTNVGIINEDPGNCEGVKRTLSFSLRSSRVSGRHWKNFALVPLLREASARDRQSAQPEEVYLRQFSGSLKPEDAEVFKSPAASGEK
Source text: Human VR1 Antagonist Assay
VR1 antagonistic activity can be determined by the Ca^2+ imaging assay using human VR1 highly expressing cells. The cells that highly express human VR1 receptors are obtainable from several different conventional methods. The one standard method is cloning from human Dorsal Root Ganglion (DRG) or kidney according to the methods such as described in the journal article; Nature, 389, pp 816-824, 1997. Alternatively VR1 receptors highly expressing human keratinocytes are also known and published in the journal article (Biochemical and Biophysical Research Communications, 291, pp 124-129, 2002). […] Further more, the method to up regulate human VR1 gene, which is usually a silent gene or don't produce detectable level of VR1 receptors, is also available to obtain propriety cells. Such genetic modification method was described in detail; Nat. Biotechnol., 19, pp 440-445, 2001.
The cells that express human VR1 receptors were maintained in culture flask at 37° C. in an environment containing 5% CO2 until use in the assay. The intracellular Ca^2+ imaging assay to determine VR1 antagonistic activities were done by following procedures.
The culture medium was removed from the flask and fura-2/AM fluorescent calcium indicator was added to the flask at a concentration of 5 μM in the medium. The flask was placed in CO2 incubator and incubated for 1 hour. Then the cells expressing the human VR1 receptors were detached from the flask follow by washing with phosphate buffer saline, PBS(−) and re-suspended in assay buffer. The 80 μl of aliquot of cell suspension (3.75×10^5 cells/ml) was added to the assay plate and the cells were spun down by centrifuge (950 rpm, 20° C., 3 minutes).
Capsaicin Stimulation Assay:
The capsaicin-induced changes in the intracellular calcium concentration were monitored using FDSS 6000 (Hamamatsu Photonics, Japan), a fluorometric imaging system. The cell suspension in Krebs-Ringer HEPES (KRH) buffer (115 mM NaCl, 5.4 mM KCl, 1 mM MgSO4, 1.8 mM CaCl2, 11 mM D-Glucose, 25 mM HEPES, 0.96 mM Na2HPO4, pH 7.3) were pre-incubated with varying concentrations of the test compounds or KRH buffer (buffer control) for 15 minutes at room temperature under the dark condition. Then capsaicin solution, which gives 300 nM in assay mixture, was automatically added to the assay plate by the FDSS 6000.
The Acid-induced changes in the intracellular calcium concentration were monitored using FDSS 6000 (Hamamatsu Photonics, Japan), a fluorometric imaging system. The cell suspension in resting buffer (HBSS supplemented with 10 mM HEPES, pH 7.4) were pre-incubated with varying concentrations of the test compounds or resting buffer (buffer control) for 15 minutes at room temperature under the dark condition. The cells were automatically added the stimulating solution (HBSS supplemented with MES, final assay buffer pH5.8) by the FDSS 6000.
Determination of Antagonist Activity
The monitoring of the changes in the fluorescence signals (λex=340 nm/380 nm, λem=510-520 nm) was initiated at 1 minute prior to the addition of capsaicin solution or acidic buffer and continued for 5 minute.

[2] = Half-life in Human Liver Microsomes (HLM); conditions: pH 7.4; for half-life at 1 μM: human, human liver microsomes (HL101)
Experimental: Test compounds (1 μM) were incubated with 3.3 mM MgCl2 and 0.78 mg/mL HLM (HL101) in 100 mM potassium phosphate buffer (pH 7.4) at 37° C. on the 96-deep well plate. The reaction mixture was split into two groups, a non-P450 and a P450 group. NADPH was only added to the reaction mixture of the P450 group. An aliquot of samples of P450 group was collected at 0, 10, 30, and 60 min time point, where 0 min time point indicated the time when NADPH was added into the reaction mixture of P450 group. An aliquot of samples of non-P450 group was collected at −10 and 65 min time point. Collected aliquots were extracted with acetonitrile solution containing an internal standard. The precipitated protein was spun down in centrifuge (2000 rpm, 15 min). The compound concentration in supernatant was measured by LC/MS/MS system.
The half-life value was obtained by plotting the natural logarithm of the peak area ratio of compounds/internal standard versus time. The slope of the line of best fit through the points yields the rate of metabolism (k).

Row | IC50 [1] [nM] | half-life at 1 μM [2] [min] | T1/2 ([2]; 1 μM compound, 0.78 mg/mL HLM, 37° C., NADPH) [min] | Structure (SMILES)
1 | 297 | 42 |  | Cc1nc([C@@H](C)NC(=O)C2CC2c2ccc(C(C)(C)C)cc2)ccc1NS(C)(=O)=O (single isomer, unassigned) [Example 55]
2 | 20.7 | 41 |  | C[C@@H](NC(=O)[C@H]1C[C@]1(C)c1cc(F)c(C(C)(C)C)c(F)c1)c1ccc(NS(C)(=O)=O)cc1 [Example 43, 2-(4-tert-Butyl-3,5-difluorophenyl)-2-methyl-N-((1R)-1-{4-[(methylsulfonyl)amino]phenyl}ethyl)cyclopropanecarboxamide]
3 | 203 | > 120 |  | Cc1nc([C@@H](C)NC(=O)[C@H]2C[C@]2(C)c2ccc(C(F)(F)F)cc2)ccc1NS(C)(=O)=O [Example 14, (1S,2S)-2-Methyl-N-((1R)-1-{6-methyl-5-[(methylsulfonyl)amino]pyridin-2-yl}ethyl)-2-[4-(trifluoromethyl)phenyl]cyclopropanecarboxamide]
4 | < 3 |  |  | CCC1(c2ccc(C(F)(F)F)cc2)CC1C(=O)N[C@H](C)c1ccc(NS(C)(=O)=O)c(C)c1 (stereo partly drawn) [Example 88, 2-Ethyl-N-((1R)-1-{3-methyl-4-[(methylsulfonyl)amino]phenyl}ethyl)-2-[4-(trifluoromethyl)phenyl]cyclopropanecarboxamide]
5 | 19.9 |  |  | CCc1cc([C@@H](CC)NC(=O)[C@H]2C[C@]2(C)c2ccc(C(F)(F)F)cc2)ccc1NS(C)(=O)=O [Example 87, (1S,2S)-N-((1R)-1-{3-ethyl-4-[(methylsulfonyl)amino]phenyl}propyl)-2-methyl-2-[4-(trifluoromethyl)phenyl]cyclopropanecarboxamide]
6 |  | 25 |  | CCc1nc([C@@H](C)NC(=O)C2C[C@]2(C)c2ccc(C(C)(C)C(F)(F)F)cc2)ccc1NS(C)(=O)=O (stereo partly drawn) [Example 35, N-((1R)-1-{6-Ethyl-5-[(methylsulfonyl)amino]pyridin-2-yl}ethyl)-2-methyl-2-[4-(2,2,2-trifluoro-1,1-dimethylethyl)phenyl]cyclopropanecarboxamide]
7 |  | 23 |  | C[C@@H](NC(=O)C1C[C@@H]1c1ccc(C(C)(C)C)c(F)c1)c1ccc(NS(C)(=O)=O)c(CO)c1 (stereo partly drawn) [Example 36, 2-[4-tert-Butyl-3-fluorophenyl]-N-((1R)-1-{3-(hydroxymethyl)-4-[(methylsulfonyl)amino]phenyl}ethyl)cyclopropanecarboxamide]
8 | 885 |  |  | Cc1cc([C@@H](C)NC(=O)C2CC2(C)c2ccc(C(C)(C)O)cc2)ccc1NS(C)(=O)=O (stereo partly drawn) [Example 3, 2-[4-(1-Hydroxy-1-methylethyl)phenyl]-2-methyl-N-((1R)-1-{3-methyl-4-[(methylsulfonyl)amino]phenyl}ethyl)cyclopropanecarboxamide]
9 | 19 |  |  | C[C@@H](NC(=O)[C@H]1C[C@@H]1c1ccc(C(C)(C)C)c(F)c1)c1ccc(NS(C)(=O)=O)c(CO)c1 [Example 36, 2-[4-tert-Butyl-3-fluorophenyl]-N-((1R)-1-{3-(hydroxymethyl)-4-[(methylsulfonyl)amino]phenyl}ethyl)cyclopropanecarboxamide]
10 | < 3 |  |  | CCC1(c2ccc(C(F)(F)F)cc2)CC1C(=O)N[C@H](C)c1ccc(NS(C)(=O)=O)c(F)c1 (stereo partly drawn) [Example 89, 2-Ethyl-N-((1R)-1-{3-fluoro-4-[(methylsulfonyl)amino]phenyl}ethyl)-2-[4-(trifluoromethyl)phenyl]cyclopropanecarboxamide]
11 | 156 |  |  | CCc1nc([C@@H](C)NC(=O)[C@H]2C[C@]2(C)c2ccc(C(C)(C)C(F)(F)F)cc2)ccc1NS(C)(=O)=O [Example 35, N-((1R)-1-{6-Ethyl-5-[(methylsulfonyl)amino]pyridin-2-yl}ethyl)-2-methyl-2-[4-(2,2,2-trifluoro-1,1-dimethylethyl)phenyl]cyclopropanecarboxamide]
12 | 4.8 |  |  | C[C@@H](NC(=O)[C@H]1C[C@]1(C)c1ccc(C(F)(F)F)cc1)c1ccc(NS(C)(=O)=O)c(CCO)c1 [Example 86, (1S,2S)-N-((1R)-1-{3-(2-Hydroxyethyl)-4-[(methylsulfonyl)amino]phenyl}ethyl)-2-methyl-2-[4-(trifluoromethyl)phenyl]cyclopropanecarboxamide]
13 | < 3 |  |  | CC[C@@H](NC(=O)[C@H]1C[C@]1(C)c1cc(F)c(C(C)(C)C)c(F)c1)c1ccc(NS(C)(=O)=O)c(C)c1 [Example 91, 2-(4-tert-butyl-3,5-difluorophenyl)-2-methyl-N-((1R)-1-{3-methyl-4-[(methylsulfonyl)amino]phenyl}propyl)cyclopropanecarboxamide]

The next lines start with the compound.

Row | Structure (SMILES) | IC50 [1] [nM] | half-life at 1 μM [2] [min] | T1/2 ([2]; 1 μM compound, 0.78 mg/mL HLM, 37° C., NADPH) [min]
14 | Cc1cc([C@@H](C)NC(=O)C2CC2c2ccc(C(C)(C)C)cc2-c2ccncc2)ccc1NS(C)(=O)=O (stereo partly drawn) [Example 65, 2-[4-tert-Butyl-2-pyridin-4-ylphenyl]-N-((1R)-1-{3-methyl-4-[(methylsulfonyl)amino]phenyl}ethyl)cyclopropanecarboxamide] | 1040 |  | 
15 | Cc1cc([C@@H](C)NC(=O)[C@H]2C[C@@H]2c2ccc(C(F)(F)F)nc2N(C)C)c(F)cc1NS(C)(=O)=O [Example 79, 2-[2-(Dimethylamino)-6-(trifluoromethyl)pyridin-3-yl]-N-((1R)-1-{2-fluoro-5-methyl-4-[(methylsulfonyl)amino]phenyl}ethyl)cyclopropanecarboxamide] | 20.5 | 22 | 
16 | COC1(c2ccc(C(C)(C)C)cc2)CC1C(=O)N[C@H](C)c1ccc(NS(C)(=O)=O)c(C)c1 (stereo partly drawn) [Example 64, 2-[4-tert-Butylphenyl]-N-((1R)-1-{3-methyl-4-[(methylsulfonyl)amino]phenyl}ethyl)-2-(methyloxy)cyclopropanecarboxamide] | 4.62 | 14 | 
17 | CC[C@@H](NC(=O)[C@H]1C[C@@H]1c1cc(F)c(C(C)(C)C)c(F)c1)c1ccc(NS(C)(=O)=O)c(C)c1 [Example 76, 2-(4-tert-Butyl-3,5-difluorophenyl)-N-((1R)-1-{3-methyl-4-[(methylsulfonyl)amino]phenyl}propyl)cyclopropanecarboxamide] | 26.3 | 33 | 
18 | COCC(C)(C)c1ccc(C2(C)CC2C(=O)N[C@H](C)c2ccc(NS(C)(=O)=O)c(C)c2)cc1F (stereo partly drawn) [Example 85, 2-{4-[1,1-Dimethyl-2-(methyloxy)ethyl]-3-fluorophenyl}-2-methyl-N-((1R)-1-{3-methyl-4-[(methylsulfonyl)amino]phenyl}ethyl)cyclopropanecarboxamide] | 52.7 |  | 
19 | Cc1cc([C@@H](C)NC(=O)C2CC2(C)c2ccc(C(C)(C)C)nc2)ccc1NS(C)(=O)=O (stereo partly drawn) [Example 11, 2-(6-tert-Butylpyridin-3-yl)-2-methyl-N-((1R)-1-{3-methyl-4-[(methylsulfonyl)amino]phenyl}ethyl)cyclopropanecarboxamide monohydrochloride] |  |  | 22
20 | Cc1cc([C@@H](C)NC(=O)C2CC2(C)c2cc(F)c(C(C)(C)C)c(F)c2)c(F)cc1NS(C)(=O)=O (stereo partly drawn) [Example 78, 2-(4-tert-Butyl-3,5-difluorophenyl)-N-((1R)-1-{2-fluoro-5-methyl-4-[(methylsulfonyl)amino]phenyl}ethyl)-2-methylcyclopropanecarboxamide] | < 3 |  | 
21 | C[C@@H](NC(=O)C1CC1c1ccc(C(C)(C)C)nc1)c1ccc(NS(C)(=O)=O)c(F)c1 (stereo partly drawn) [Example 52, 2-[6-tert-Butylpyridin-3-yl]-N-((1R)-1-{3-fluoro-4-[(methylsulfonyl)amino]phenyl}ethyl)cyclopropanecarboxamide] | 1150 |  | 
22 | CC[C@@H](NC(=O)[C@H]1C[C@]1(C)c1cc(F)c(C(C)(C)C)c(F)c1)c1ccc(NS(C)(=O)=O)cc1 [Example 90, 2-(4-tert-Butyl-3,5-difluorophenyl)-2-methyl-N-((1R)-1-{4-[(methylsulfonyl)amino]phenyl}propyl)cyclopropanecarboxamide] | 86.3 |  | 
23 | Oc1cc2c(cc1O)CN(C(=S)NCCc1ccc(Cl)cc1)CCC2 [Capsazepine, reference compound] | 237 to 455 |  | 
